Columns and labels:
Stat3 = experiment: IL-6 stimulated Stat3 activation (pY-Stat3) immunoblot in MM-1 cells; assay type: cell-based
Procedure: Left: MM-1 cells were pretreated with Degrasyn (5 μM WP1130) for 2 h before incubation with IL-6 (10 ng/ml) for 15 min. Cell lysates were prepared and assessed for Stat3 activation (pY-Stat3) and protein levels (Stat3) by immunoblotting. Actin was used as a control for protein loading.
Left: MM-1 cells were pretreated with buffer alone (−), AG490 (50 μM) or Degrasyn (5 μM) for 2 h before incubation with IL-6 for 15 min. Cell lysates were prepared and Jak2 was immunoprecipitated and immunoblotted with anti-Jak2 (top). Cell lysates (50 μg) were immunoblotted for pY-Stat3, Stat3 or actin.
Western Blot analysis. Cells were harvested, washed twice in cold 1×PBS and lysed in modified RIPA lysis buffer (150 mM NaCl, 1% NP-40, 0.5% Na-deoxycholate [DOC], 0.1% Na-dodecyl sulfate [SDS], 50 mM Tris-HCl (pH 7.5), 1 mM EDTA, 1 mM NaF, 2 mM Na-vanadate, with protease inhibitors (1 mM PMSF, 1 mM benzamidine, 10 μg/ml aprotinin, 10 μg/ml leupeptin) on ice for 30 min. The lysed cells were centrifuged at 13,000 rpm for 30 min and the supernatant collected. The protein concentration of the cell lysate was determined by the Bradford Protein Assay. Fifty to 60 μg of protein were resolved in a 10% SDS-PAGE, and transferred to a PVDF membrane. […]

[1] = system: CML cells expressing the T315I mutant BCR-ABL; experiment: Clonal outgrowth of CML cells from imatinib resistant patients; assay type: cell-based, human; details: cells of 2 patients that failed imatinib therapy
From the text: Isolation of cellular fractions from clinical specimens. Mononuclear cells were isolated from peripheral blood or bone marrow of imatinib-resistant CML patients after informed consent was obtained for a protocol reviewed and approved by the Institutional Review Board of M.D. Anderson Cancer Center. Cells were purified on Ficoll-Hypaque gradients.

HA-tagged c-myc = molecular target: T1, HA-tagged c-myc (Homo sapiens, UniProt P01106); experiment: HA-tagged c-myc stability in transfected HeLa cells; assay type: cell-based; details: 1 h treatment
T1 construct: labeled at the termini as 1 and 439; expressed in transfected cells; host or cells: HeLa
Procedure: Bottom: Expression vectors for HA-tagged c-myc or HA-tagged IKKγ (tagged at the N-terminus) were transfected (at the DNA content indicated) into HeLa cells as described in the methods section above. Twenty-four h later, cells were treated with Degrasyn for 1 h before harvesting cells, extracting protein and subjecting equal protein lysates to immunoblotting for c-myc (left) or IKKγ (right) using an HA-directed antibody. Actin was immunoblotted as a control for protein loading. […] These cells and transfection system were used to map the domains important for Degrasyn mediated destabilization by deletion analysis (FIG. 20).
Analysis of wild-type and mutant (deleted) c-myc protein stability. A c-myc expression vector (pCGN-MYC) was obtained from Dr. William Tansey (Cold Springs Harbor, N.Y.) and initially used to transfect HeLa cancer cells (with the SN2 cationic lipid). In subsequent studies, the c-myc gene was subcloned downstream of the HA antigen in the pcDNA3.1 vector, allowing efficient detection of transfected c-myc by anti-HA immunoblotting. Multiple site-specific mutations and domain deletions were introduced into the c-myc gene using the Stratagene Quickchange II XL kit and specific dual primer sets. The deletions/mutations were verified by direct sequencing before use. […]

[2] = system: c-myc and activated Stat3; experiment: c-myc, pY-Stat3, Stat3, p53, p-MAPK immunoblot in A375 melanoma cells; assay type: cell-based; details: A375, 2 h
Procedure: A375 melanoma cells were pretreated with Degrasyn at the concentration noted for 2 h before the addition of 10 ng/ml IL-6 for 15 min. Cell lysates were prepared and equal protein aliquots were resolved by SDS-PAGE and immunoblotted for c-myc, p53 (wild-type), activated Stat3 (pY-Stat3), Stat3 and activated Erk1/2 kinase (p-MAPK).
(§1) Western Blot analysis. Cells were harvested, washed twice in cold 1×PBS and lysed in modified RIPA lysis buffer (150 mM NaCl, 1% NP-40, 0.5% Na-deoxycholate [DOC], 0.1% Na-dodecyl sulfate [SDS], 50 mM Tris-HCl (pH 7.5), 1 mM EDTA, 1 mM NaF, 2 mM Na-vanadate, with protease inhibitors (1 mM PMSF, 1 mM benzamidine, 10 μg/ml aprotinin, 10 μg/ml leupeptin) on ice for 30 min. The lysed cells were centrifuged at 13,000 rpm for 30 min and the supernatant collected. The protein concentration of the cell lysate was determined by the Bradford Protein Assay. Fifty to 60 μg of protein were resolved in a 10% SDS-PAGE, and transferred to a PVDF membrane. Western blotting was performed using specific primary antibodies Peroxidase-conjugated affiniPure anti-Mouse Anti-Rabbit secondary antibodies (Jackson Immunoresearch Laboratories, West Grove, Pa.). The proteins were visualized with ECL Plus reagents (Amersham Biosciences).

A375 melanoma tumors = A375 melanoma tumors in nude mice; assay type: in vivo, Swiss nude mice
Procedure: Ten Swiss nude mice (6-7 weeks of age) were injected subcutaneously (sc) with […] A375 melanoma cells on Day 0. When tumor nodules were palpable (Day 8), animals were divided into 2 groups. One group (Control) received 0.1 ml DMSO/PEG (1:1) intraperitoneally (ip) every other day […] for a total of 14 injections. The second group received 40 mg/kg Degrasyn ip beginning on Day 8 and repeated every other day for a total of 14 injections. Body weight and tumor volumes (by calipers) were measured every other day, the latter plotted vs. time. […] All animals were euthanized when tumor volumes (in the control group) achieved the maximal allowable burden (1.5 cm^3). The average +/−S.E.M. tumor volume from 5 animals per group is shown.
Anti-tumor studies. Swiss Nu/Nu mice were obtained from the breeding facility in the Department of Experimental Radiotherapy at M.D. Anderson Cancer Center. On Day 0, 200 μl of an A375 cell suspension (5×10^6 cells/ml) were injected (s.c.) into female Swiss nude mice 6-7 weeks of age. At the interval noted, compounds were injected (i.p. or oral gavage) into tumor bearing mice in a 0.1 ml suspension of DMSO/PEG300 (50/50). Degrasyn (40 mg/kg) was administrated on an every other day schedule, for 5 or more injections. […] Tumor volumes were measured every other day using calipers (Cel Associates, Houston, Tex.).

[3] = system: p70 and p55 tyrosine phosphorylation; experiment: Phosphotyrosine (4G10) immunoblot in B-cell malignancy cell lines; assay type: cell-based
Procedure: MM-1 cells were pretreated with Degrasyn (at the concentration indicated) for 2 h before the addition of IL-6 for 15 min (as noted). Total cell lysates were prepared and equal protein aliquots were resolved by SDS-PAGE and immunoblotted for phosphotyrosine (4G10).
MM-1 and LP (lymphoma) cells were treated with Degrasyn (at the concentration indicated) for 2 h before cell lysates were prepared and equal protein aliquots were resolved by SDS-PAGE and immunoblotted for phosphotyrosine (4G10).
MM-1 and Mino (Mantle cell lymphoma) cells were treated with Degrasyns with different levels of anti-tumor efficacy (at the concentration indicated) for 2 h before cell lysates were prepared and equal protein aliquots were resolved by SDS-PAGE and immunoblotted for phosphotyrosine (4G10).
MM-1 cells were treated as indicated before analysis of cellular tyrosine phosphorylation by immunoblotting. Both p70 and p55 were tyrosine phosphorylated after 15 min of Degrasyn treatment which peaks in intensity after 1 h and remains higher than control levels after 4 h. These early changes may underlie or be a marker of Degrasyn activity in B-cell malignancies.
as §1

T1 sequence (P01106 16-454): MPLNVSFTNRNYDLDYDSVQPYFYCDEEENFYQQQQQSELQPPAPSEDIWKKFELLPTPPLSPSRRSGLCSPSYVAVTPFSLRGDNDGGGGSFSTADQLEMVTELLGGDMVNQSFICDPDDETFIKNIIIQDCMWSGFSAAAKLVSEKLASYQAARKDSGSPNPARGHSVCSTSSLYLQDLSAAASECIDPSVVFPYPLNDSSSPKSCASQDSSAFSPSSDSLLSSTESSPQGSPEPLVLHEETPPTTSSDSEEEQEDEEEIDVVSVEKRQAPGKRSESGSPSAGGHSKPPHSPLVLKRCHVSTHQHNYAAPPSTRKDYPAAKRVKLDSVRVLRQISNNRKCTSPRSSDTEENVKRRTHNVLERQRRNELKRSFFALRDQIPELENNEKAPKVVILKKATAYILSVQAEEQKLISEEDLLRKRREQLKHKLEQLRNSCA

CCC[C@H](NC(=O)/C(C#N)=C/c1cccc(Br)n1)c1ccccc1 [Degrasyn]
Stat3 activation (pY-Stat3) (Stat3; 5 μM, 2 h pretreatment, IL-6 10 ng/ml 15 min): blocked Stat3 activation | Stat3 activation compared with AG490 (Stat3; Degrasyn 5 μM vs AG490 50 μM, 2 h, IL-6 15 min): reduces Stat3 activation more effectively than 10-fold greater concentrations of AG490 | Colony formation of leukemic cells [1]: more effective than imatinib in suppressing colony formation | HA-tagged c-myc and HA-tagged IKKγ levels (HA-tagged c-myc): reduced HA-tagged c-myc but did not affect HA-tagged IKKγ | c-myc protein levels and Stat3 activation ([2]; then IL-6 10 ng/ml 15 min): reduced c-myc protein levels suppressed Stat3 activation at higher concentrations | Stat3, p-MAPK and p53 levels ([2]; then IL-6 15 min): not affected | Animal weight (A375 melanoma tumors; 40 mg/kg ip every other day): did not affect animal weight | Growth of A375 tumors (tumor volume) (A375 melanoma tumors; 40 mg/kg ip every other day from Day 8, 14 injections): suppresses the growth of A375 tumors in vivo | Tyrosine phosphorylated protein species (~70 kDa, ~55 kDa) ([3]; 2 h, MM-1, LP or Mino cells): increased | Time at which p70 and p55 were tyrosine phosphorylated ([3]; MM-1): 15 min | Time of peak intensity of p70 and p55 tyrosine phosphorylation ([3]; MM-1): 1 h | Tyrosine phosphorylated protein species (~70 kDa, ~55 kDa), with IL-6 ([3]; MM-1, 2 h pretreatment, IL-6 15 min): increased

— patent US20100292229A1, “TRYPHOSTIN-ANALOGS FOR THE TREATMENT OF CELL PROLIFERATIVE DISEASES” (The Board of Regents of the University of Texas System, priority 2006, published 2010)
